Marks after values point to notes of the source that are not given here.
Key:
human COX-2 = molecular target: T1, human COX-2 (Homo sapiens, UniProt P35354); assay: Determination of COX-2 inhibitory activity (microsome fraction, chemiluminescence); type: biochemical; conditions: microsome fraction 20 μg, arachidonic acid, 37° C. 25 minutes preincubation; read-out: Repression rate IC50 (μM) COX-2
T1 construct: made in house; host or cells: Sf-21 insect cells (recombinant baculovirus BAC-COX2, pFASTBAC1); microsome fraction
T1 sequence (P35354 18-604): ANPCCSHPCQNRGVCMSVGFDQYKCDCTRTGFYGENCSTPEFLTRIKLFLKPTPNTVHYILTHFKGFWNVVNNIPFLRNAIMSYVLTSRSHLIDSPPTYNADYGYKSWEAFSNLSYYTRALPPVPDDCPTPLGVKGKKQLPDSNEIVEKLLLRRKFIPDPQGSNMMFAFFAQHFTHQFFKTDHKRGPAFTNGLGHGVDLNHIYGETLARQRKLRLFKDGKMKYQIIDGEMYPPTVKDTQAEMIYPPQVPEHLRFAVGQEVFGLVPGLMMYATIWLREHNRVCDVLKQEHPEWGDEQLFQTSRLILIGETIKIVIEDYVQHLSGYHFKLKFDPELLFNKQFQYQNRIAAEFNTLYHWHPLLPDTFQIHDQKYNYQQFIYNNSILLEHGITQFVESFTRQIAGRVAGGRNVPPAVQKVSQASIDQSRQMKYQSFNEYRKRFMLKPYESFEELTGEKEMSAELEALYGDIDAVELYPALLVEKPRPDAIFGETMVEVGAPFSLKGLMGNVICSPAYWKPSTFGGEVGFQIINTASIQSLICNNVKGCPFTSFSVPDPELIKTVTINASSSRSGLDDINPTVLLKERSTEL
Procedure: A 1.8 kb DNA fragment containing human COX-2 cDNA (Proc. Natl. Acad. Sci. U.S.A., vol. 89 (16), p. 7384-7388 (1992)) prepared by the PCR method was inserted into plasmid pFASTBAC1 (CIBCOBRAL) to obtain a plasmid pFBCOX2.
Using the plasmid pFBCOX2 and BAC-TO-BAC Baculovirus Expression System (GIBCOBRAL), a virus stock BAC-COX2 of the recombinant baculovirus was prepared.
Sf-21 cells were inoculated in 125 mL of LSf-900 II SFM medium (GIBCOBRAL) at a concentration of 1×10^6 cells/mL, and the medium was incubated at 27° C. for 24 hours. 0.75 mL of the virus stock BAC-COX2 of the recombinant baculovirus was added thereto, and was incubated further for 72 hours. The cells were separated from the medium by centrifugation (3000 rpm, 10 min), and washed with PBS twice. The cells were suspended in 10 mL of a Lysis buffer (0.1M Tris-HCl (pH 7.4), 5 mM EDTA), and were treated with a homogenizer (POLYTRON), three times at 20000 rpm for 20 seconds so that the cells were crushed. The supernatant thus obtained after centrifugation (2000 rpm, 10 minutes) was further centrifuged (40000 rpm, 45 minutes) to obtain a precipitate, which was resuspended in a Lysis buffer (0.1M Tris-HCl (pH 7.4), 5 mM EDTA), and the suspension was stored at −80° C.
Determination of COX-1 and COX-2 Inhibitory Activities
To a mixture of 20 μL of a reaction buffer previously concentrated 10 times (1M Tris-HCl (pH8.0), 50 mM EDTA, 1.0% Tween 20, 50 mM luminol, 100 μM hematin), 20 μL of the microsome fractions (COX-1: 40 μg, COX-2: 20 μg), and 55 μL of distilled water, a sample compound dissolved in DMF (5 μL) was added, and the mixture was left at 37° C. for 25 minutes. The reaction was started by the addition of 20 μM arachidonic acid (100 μL), and chemiluminescence amount during the 10-second period after the addition of arachidonic acid was determined by the use of Lumistar (BMG Lab technologies, GmbH). The inhibition rate was calculated, regarding that the enzyme activity when DMF ([…]) was added was 100%, and the enzyme activity when 4 mM flurbiprofen (5 μL) was added was 0%.

gastric mucosa = assay: Disorder of gastric mucosa; type: in vivo, SD rats; conditions: stomach, 300 mg/kg orally, fasted rats, 6 hours after dosing
Procedure: Disorder of Gastric Mucosa
Male SD origin male-rats (7 weeks old, CLEA Japan) were used. After 24 hours from the termination of food supply, samples were orally administered (5 mL/kg, b.w.). After 5.5 hours, Evan's Blue (0.5% Evan's Blue/saline) was injected intravenously (1 mL/rat) under no anesthesia. After 30 minutes from the shot, the stomach (with esophagus and duodenum of 1.5 to 2 cm length) was removed by celiotomy, and subsequently, the esophagus terminal was closed with a clip, and a 8 mL of 1% formalin solution was injected into the stomach through the duodenum, which was also closed with a clip after the injection. The stomach was left contacting with the 1% formalin solution for more than 10 minutes, and subsequently cut open from duodenum along the greater curvature of stomach. The stomach was washed and spread on a filter paper, and the length of each of the spots dyed by Evan's Blue (hemorrhagic portion: mucosal ablation to ulcer) was measured under a stereomicroscope, and the total length (mm) was calculated by a counter and recorded.

[1] = system: mucosa of small intestine; assay: Disorder of mucosa of small intestine; type: in vivo, SD rats; conditions: 300 mg/kg orally, freely fed rats, 6 hours after dosing
Procedure: Disorder of Mucosa of Small Intestine Male SD origin male-rats (7 weeks old, CLEA Japan) were used. To the rats freely fed, samples were administered orally (5 mL/kg, b.w.). After 5.5 hours from the administration, Evan's Blue (0.5% Evan's Blue/saline) was injected (1 mL/rat) intravenously under no anesthesia. After 30 minutes from the shot, the intestine was removed by celiotomy and the area thereof facing mesentery was cut open. After removal of intestinal content, the spots in the intestine dyed by Evan's Blue were measured under a stereomicroscope, and the total length (mm) of the spots was determined by a counter and recorded.

adjuvant arthritis = assay: Anti-adjuvant-arthritic activity; type: in vivo, SD rats; conditions: 10 mg/kg orally once a day for 14 days; volume of left hind limb (not injected); day of reading not given
Procedure: Anti-Adjuvant-Arthritic Activity
Male SD origin male-rats (6 weeks old, CLEA Japan, 1 group: n=7) were used. The adjuvant arthritis method was conducted according to the method of Newbould B. B. et. al., (Brit. J. Pharmacol. Chemother., vol. 21, p. 127, 1963). Complete Freund's adjuvant (a suspension of killed tubercule bacillus in liquid paraffin at a concentration of 0.5%, 0.05 mL) was injected into the right hind limb footpad intracutaneouly to induce multiple arthritis. Samples were administered orally (10 mg/kg, b.w.), once a day for 14 days from the day before the injection day 0 to day 13. Volume of the left hind limb (not injected) was determined by the foot-volume measurement apparatus manufactured by Ugo Basile, on the day just before the adjuvant shot (Day 0), Day 10 and Day 14, and repression rate (%) was calculated comparing the values between the sample group and the control group.

Row | SMILES | IC50 (human COX-2) | Total length of dyed spots (mm) (gastric mucosa) | Total length of dyed spots (mm) [1] | Repression rate (%) Dosage 10 mg/kg (adjuvant arthritis)
1 | Cc1nn(-c2ccccn2)c2nc3ccccc3c(OC3CCCC3)c12 [Example 2-21, 4-Cyclopentyloxy-3-methyl-1-(2-pyridinyl)-1H-pyrazolo[3,4-b]quinoline] | 86 µM | – | – | –
2 | O=c1c2ccccc2[nH]c2c1cnn2-c1ccccn1 [Example 2-159, 1-(2-Pyridinyl)-1,9-dihydro-4H-pyrazolo[3,4-b]quinolin-4-one] | 1.37 µM | 0 (300 mg/kg) mm | 0 (300 mg/kg) mm | –
3 | Cc1nn(-c2ccccn2)c2[nH]c3cccc(F)c3c(=O)c12.Cl [Example 2-79, 5-Fluoro-3-methyl-1-(2-pyridinyl)-1,9-dihydro-4H-pyrazolo[3,4-b]quinolin-4-one hydrochloride] | 3.7 µM | 0 (300 mg/kg) mm | 0 (300 mg/kg) mm | –
4 | CCCOc1c2ccccc2nc2c1c(C)nn2-c1ccccn1 [Example 2-17, 3-Methyl-4-propoxy-1-(2-pyridinyl)-1H-pyrazolo[3,4-b]quinoline] | 49.2 µM | – | 0 (300 mg/kg) mm | 61* %
5 | CCCNc1c2ccccc2nc2c1c(C)nn2-c1ccccn1 [Example 2-6, N-[3-Methyl-1-(2-pyridinyl)-1H-pyrazolo[3,4-b]quinolin-4-yl]-N-propylamine] | 65.1 µM | – | – | –

— US6949648B2, “Condensed pyrazole derivatives, process for producing the same and use thereof” (Takeda Pharmaceutical Company Limited, priority 2000, dated 2005)
